From US20070155661A1, “Methods and compositions for modulating the development of stem cells” (THE BOARD of TRUSTEES of the LELAND STANDORD JUNIOR …, priority 2003, published 2007)

Tested on: mouse ES cell-derived IPCCs
Assay: Insulin production by mouse ES cell-derived insulin-producing cell clusters (IPCCs)
Type: cell-based
Description: In duplicate experiments, we detect approximately 6000 ng insulin/mg protein produced by mouse embryoid bodies treated with a sequence of growth factors including GDF8.

GDF8: BMP/TGF-beta family growth factor, ~80% identical to GDF11 in the mature region
effect on insulin production (mouse ES cell-derived IPCCs): promotes insulin production
insulin produced by mouse embryoid bodies (mouse embryoid bodies treated with a sequence of growth factors including GDF8, duplicate experiments): approximately 6000 ng insulin/mg protein
